Assay results as given in patent publication US6348482B1, “Catechols as antimicrobial agents” (Merck & Co., Inc., priority 1999, dated 2002).
Converted amounts (≈) assume the structure as drawn.

Tests used:
[1] = test system: Efs; test: Whole cell antimicrobial screen (MIC), Efs; assay type: cell-based; conditions: overnight incubation, 2-fold dilutions, read-out: MIC (μg/mL) Efs
Procedure: (§1) Compounds were tested for antimicrobial activity against a panel of organisms according to standard procedures described by the National Committee for Clinical Laboratory Standards (NCCLS document M7-A3, Vol. 13, No. 25, 1993/NCCLS document M27-P, Vol. 12, No. 25, 1992). Compounds were dissolved in 100% DMSO and were diluted to the final reaction concentration (0.1 μg/ml-500 μg/ml) in microbial growth media. In all cases the final concentration of DMSO incubated with cells is less than or equal to 1%. For minimum inhibitory concentration (MIC) calculations, 2-fold dilutions of compounds were added to wells of a microtiter plate containing 1×10^5 bacteria or fungal cells in a final volume of 200 lambda of an appropriate media (Mueller-Hinton Broth; Haemophilus Test Media; Mueller-Hinton Broth+5% Sheep Blood; or […]). Plates were incubated overnight at an appropriate temperature (30° C.-37° C.) and optical densities (measure of cell growth) were measured using a commercial plate reader. The MIC value is defined as the lowest compound concentration inhibiting growth of the test organism.

[2] = test system: Efm; test: Whole cell antimicrobial screen (MIC), Efm; assay type: cell-based; conditions: overnight incubation, 2-fold dilutions, read-out: MIC (μg/mL) Efm
Procedure: as §1

[3] = biological target: aminoacyl-tRNA synthetases (aaRS); test: aaRS charging and trichloroacetic acid precipitation assay (IC50), Sa enzyme; assay type: biochemical; conditions: aaRS from Sa; 20 min preincubation at 25 C
Procedure: (§2) IC50 determinations for the aminoacyl-tRNA synthetases (aaRS) isolated from pathogen or HeLa cells were carried out using a modification of the aaRS charging and trichloroacetic acid precipitation assay described previously (see examples: D. Kern et. al., Biochemie, 61, 1257-1272 (1979) and J. Gilbart et. al. Antimicrobial Agents and Chemotherapy, 37(1), 32-38 (1993)). The aaRS enzymes were prepared via standard cloning and expression methods and partially purified or partially purified from pathogen and HeLa cell extracts. The activity of each aaRS enzyme was standardized as trichloroacetic acid precipitable counts (cpm) obtained at 10 minutes reaction time at Km concentrations of substrates. For practical purposes, the minimal acceptable value is approximately 2000 cpm per 10 minute reaction.
(§3) Preincubations for IC50 determinations were initiated by incubating partially purified aaRS extracts in 50 mM HEPES (pH 7.5), 0.1 mM EDTA, 0.05 mg/ml bovine serum albumin, 10 mM dithiothreitol and 2.5% dimethyl sulfoxide with and without test compound (e.g. compound of the invention (preferably a compound of Formula I)) in a final volume of 20 microliters in a microtiter plate for 20 minutes at 25 C. Test compounds were typically present as serial dilutions in concentration ranges of 0.35 nM to 35 μM. Test compound solutions were prepared by dissolving test compound in 100% dimethyl sulfoxide and diluting to the final concentration with 50 mM HEPES, pH 7.5. IC50 determinations were typically performed in duplicate with each experiment containing 4-8 concentrations of inhibitor along with two no inhibitor controls.
(§4) IC50 incubations were initiated by supplementing the preincubation mixture to a final assay concentration of 10 mM MgCl2, 30 mM KCl, 10 mM KF, 50 mM HEPES (pH 7.5), 20 μM-500 mM ATP, 2-20 μM [^3H] amino acid, and 90-180 μM crude tRNA in a final volume of 35 microliters. The reaction was incubated at 25° C. for 5-20 minutes. At specified time points a 15 microliter aliquot was removed and added to a well of a Millipore filtration plate (Multiscreen-FB, MAFB NOB 10) containing 100 microliters of cold 5% (wt/vol) trichloroacetic acid. Trichloroacetic acid precipitable material was collected by filtration on Millipore Multiscreen filtration station, washed twice with cold 5% trichloroacetic acid, twice with water, and dried. Plates were typically allowed to air dry for several hours or they were baked at 50° C. in a vacuum oven for 30 minutes. The radioactivity on the dried plates was quantitated by the addition of Packard Microscint-20 to the wells and counting with a Packard TopCount scintillation counter.
(§5) Inhibitor activity was typically reported as a percentage of the control aaRS activity. The IC50 value was determined by plotting per cent activity versus compound concentration in the assay and identifying the concentration at which 50% of the activity was remaining.

[4] = test system: Sa; test: Whole cell antimicrobial screen (MIC), Sa; assay type: cell-based; conditions: overnight incubation, 2-fold dilutions, read-out: MIC (μg/mL) Sa
Procedure: as §1

[5] = biological target: aminoacyl-tRNA synthetases (aaRS); test: aaRS charging and trichloroacetic acid precipitation assay (IC50), Ef enzyme; assay type: biochemical; conditions: aaRS from Ef; 20 min preincubation at 25 C
Procedure: as §2, §3, §4, §5

| Structure (SMILES) | MIC [1] [µg/mL] | MIC [2] [µg/mL] | IC50 [3] [nM] | MIC [4] [µg/mL] | IC50 [5] [nM] |
| --- | --- | --- | --- | --- | --- |
| O=C(O)Cc1ccc(OCc2nc3ccccc3[nH]2)c(OCc2ccc(Cl)cc2Cl)c1 [130,976] | < 10 | < 10 | < 500 | < 10 | < 500 |
| Clc1ccc(COc2ccccc2OCc2nc3ccccc3[nH]2)c(Cl)c1 [126,419] | > 100 | > 100 | < 500 | > 100 | < 500 |

The next lines start with the values.

| MIC [1] [µg/mL] | MIC [2] [µg/mL] | IC50 [3] [nM] | MIC [4] [µg/mL] | IC50 [5] [nM] | Structure (SMILES) |
| --- | --- | --- | --- | --- | --- |
| < 100 | 100 (≈ 189 µM) | < 500 | > 100 | < 500 | O=C(NC(CO)C(=O)O)c1ccc(OCc2nc3ccccc3[nH]2)c(OCc2ccc(Cl)cc2Cl)c1 (stereo not shown) [130,970] |
| > 100 | > 100 | < 500 | > 100 | < 500 | O=C(NC(CO)C(=O)O)c1ccc(OCc2ccc(Cl)cc2Cl)c(OCc2nc3ccccc3[nH]2)c1 (stereo not shown) [130,968] |
| 100 (≈ 192 µM) | 100 (≈ 192 µM) | < 500 | < 100 | < 500 | CS(=O)(=O)NC(=O)c1ccc(OCc2nc3ccccc3[nH]2)c(OCc2ccc(Cl)cc2Cl)c1 [130,971] |
